The source made the active and inactive calls.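 Rule for the calls: active = a tumour-causing dose and a tumour site recorded for mice in at least one sex group; inconclusive = only government mouse studies exist and were judged inadequate; inactive = mouse studies exist but none gave tumours.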
Tested on: mouse carcinogenicity bioassay, TD50 from CPDB
Assay: DSSTox (CPDBAS) Carcinogenic Potency Database Summary Mouse Bioassay Results
Conditions: for outcome: TD50_Mouse_Note: no positive results
In short: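 Chronic long-term mouse cancer bioassays from literature and NCI/NTP, compiled per sex. TD50 is the standardized carcinogenic potency, using the most positive experiment per sex-species; target sites follow author opinion.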

[1] = TargetSites_Mouse_Female: no positive results
[2] = TD50_Mouse_Note: TD50 is harmonic mean of more than one positive test, TargetSites_Mouse_Female: stomach
[3] = TargetSites_Mouse_BothSexes: liver, mammary gland
[4] = TD50_Mouse_Note: TD50 is harmonic mean of more than one positive test, TargetSites_Mouse_Female: liver
[5] = TargetSites_Mouse_Female: liver

`CCNc1nc(Cl)nc(NC(C)C)n1` was tested, and the outcome [1] was “inactive; no positive results”.

In the case of `CNNC`, the Potency (TD50_Mouse_Note: TD50 is harmonic mean of more than one positive test, harmonic mean of TD50 includes a value for upper 99% confidence li, TargetSites_Mouse_Female: lung, vascular system) is reported as 0.000857 mmol/kg/day.

Molecule `CN(N=O)c1ncnc2nc[nH]c12` has a Potency [1] of 0.101 mmol/kg/day.

With `C=Cc1cccc[n+]1[O-]` the outcome [1] was “inactive”.

With `O=C(O)c1[nH]n(-c2ccc(S(=O)(=O)O)cc2)c(=O)c1N=Nc1ccc(S(=O)(=O)O)cc1` the outcome [1] was “inactive; no positive results”.

`CC(C)COC(=O)c1ccc(O)cc1` was tested, and the outcome [1] was “inactive; no positive results”.

`O=C1O[C@H]([C@H](O)CO)C(O)=C1O` was tested, and the outcome [1] was “inactive; no positive results”.

In the case of `CC1=C(C(=O)OCCN(Cc2ccccc2)c2ccccc2)C(c2cccc([N+](=O)[O-])c2)C(P2(=O)OCC(C)(C)CO2)=C(C)N1` (stereo not given), the outcome [1] is reported as “inactive; no positive results”.

Work on `Nc1cccc2c(N)cccc12` yielded a Potency (TD50_Mouse_Note: TD50 is harmonic mean of more than one positive test, TargetSites_Mouse_Female: liver, lung, thyroid gland) of 1.02 mmol/kg/day.

In the case of `O=C(O)COc1cc(Cl)c(Cl)cc1Cl`, the outcome [1] is reported as “inactive; no positive results”.

In the case of `CCCC(Cl)CCC(Cl)CCC(Cl)CCC(Cl)CCC(Cl)CCC(Cl)CCC(C)Cl` (stereo not given), the Potency [1] is reported as 11.6 mmol/kg/day.

In the case of `CCOC(=O)[C@H](CCc1ccccc1)N[C@@H](C)C(=O)N1Cc2ccccc2C[C@H]1C(=O)O`, the outcome [1] is reported as “inactive; no positive results”.

In the case of `O=C(O)CCCC/C=C(\c1ccccc1)c1cccnc1`, the outcome [1] is reported as “inactive; no positive results”.

Molecule `CC(=O)Nc1nnc(-c2ccc([N+](=O)[O-])o2)s1` has a Potency (TargetSites_Mouse_Female: stomach) of 0.0265 mmol/kg/day.

Molecule `CC(C)=CCl` has a Potency [2] of 0.165 mmol/kg/day.

`CC(/C=C/C=C(\C)C(=O)O[C@@H]1O[C@H](CO[C@@H]2O[C@H](CO)[C@@H](O)[C@H](O)[C@H]2O)[C@@H](O)[C@H](O)[C@H]1O)=C\C=C\C=C(C)\C=C\C=C(/C)C(=O)O[C@@H]1O[C@H](CO[C@@H]2O[C@H](CO)[C@@H](O)[C@H](O)[C@H]2O)[C@@H](O)[C@H](O)[C@H]1O` was tested, and the outcome [1] was “inactive; no positive results”.

Molecule `OCCN(CCO)CCO` has a Potency (TD50_Mouse_Note: TD50 is harmonic mean of more than one positive test, TargetSites_Mouse_Female: all tumor bearing animals) of 0.67 mmol/kg/day.

With `C=Cc1ccccc1` the Potency (TD50_Mouse_Note: TD50 is harmonic mean of more than one positive test, TargetSites_Mouse_Female: lung) was 2.02 mmol/kg/day.

For `CC1=CC(=O)NS(=O)(=O)O1`, the outcome [1] was “inactive; no positive results”.

`Nc1ccc(Cc2ccc(N)cc2)cc1` was tested, and the Potency (TD50_Mouse_Note: TD50 is harmonic mean of more than one positive test, TargetSites_Mouse_Female: hematopoietic system, liver, thyroid gland) was 0.119 mmol/kg/day.

Molecule `COc1cc(/C=N/NC(=O)c2ccncc2)ccc1O` has a Potency [3] of 0.101 mmol/kg/day.

In the case of `Cn1c(=O)c2c(ncn2C)n(C)c1=O`, the outcome [1] is reported as “inactive; no positive results”.

For `Nc1ccc(-c2ccc(F)cc2)cc1`, the Potency [4] was 0.00609 mmol/kg/day.

For `O=NO`, the outcome [1] was “inactive; no positive results”.

In the case of `CCCCCNN`, the Potency (TargetSites_Mouse_Female: lung, vascular system) is reported as 0.0423 mmol/kg/day.

`CCCc1cc(=O)[nH]c(=S)[nH]1` gave a Potency (TargetSites_Mouse_BothSexes: pituitary gland) of 2.4 mmol/kg/day.

In the case of `Cc1ccccc1`, the outcome [1] is reported as “inactive; no positive results”.

For `S=C=Nc1ccccc1`, the outcome [1] was “inactive; no positive results”.

For `Nc1ccc(Cl)cc1`, the outcome [1] was “inactive; no positive results” and the Potency [1] was 0.546 mmol/kg/day.

`Cn1cc(C(=O)O)c(=O)c2ccc(/C=C/c3ccc([N+](=O)[O-])o3)nc21` gave a Potency (TargetSites_Mouse_BothSexes: hematopoietic system, lung, stomach) of 0.0212 mmol/kg/day.

`O=c1cc(CO)occ1O` showed a Potency (TD50_Mouse_Note: TD50 is harmonic mean of more than one positive test, TargetSites_Mouse_Female: thyroid gland) of 4.63 mmol/kg/day.

`O=C1C(Cl)=C(Cl)C(=O)C(Cl)=C1Cl` was tested, and the outcome [1] was “inactive; no positive results”.

With `[Se]` the outcome was “inactive”.

`O=C(O)c1cc(N=Nc2ccc(S(=O)(=O)Nc3ccccn3)cc2)ccc1O` was tested, and the Potency [4] was 3.14 mmol/kg/day.

With `CN(C)C(=O)Nc1ccc(Cl)c(Cl)c1` the outcome [1] was “inactive; no positive results”.

Molecule `CCNN` has a Potency (TD50_Mouse_Note: TD50 is harmonic mean of more than one positive test, TargetSites_Mouse_Female: lung, vascular system) of 0.0679 mmol/kg/day.

With `COC(N)=O` the outcome [1] was “inactive; no positive results”.

For `CNC(=O)Oc1cccc2ccccc12`, the outcome [1] was “inactive; no positive results”.

With `Nc1ncn([C@@H]2O[C@H](CO)[C@@H](O)[C@H]2O)c(=O)n1` the Potency (TD50_Mouse_Note: positive test results only by intraperitoneal or intravenous injection, TD50 is harmonic mean of more than one positive, TargetSites_Mouse_Female: hematopoietic system, mammary gland, skin) was 0.000317 mmol/kg/day.

Molecule `Nc1ccc(-c2ccc(N)cc2)cc1` has a Potency of 0.108 mmol/kg/day and a Potency (TD50_Mouse_Note: TD50 is harmonic mean of more than one positive test, TargetSites_Mouse_Female: harderian gland, liver, vascular system) of 0.0766 mmol/kg/day.

In the case of `Cc1ccc2c(c1N)C(=O)c1ccccc1C2=O`, the Potency [5] is reported as 0.733 mmol/kg/day.

With `CC1=NN(c2ccccc2)C(=O)C1` the outcome [1] was “inactive; no positive results”.

`CNC(=S)N(C)C` was tested, and the outcome [1] was “inactive; no positive results”.

In the case of `O=[N+]([O-])c1cc([N+](=O)[O-])c(Cl)c(Cl)c1Cl`, the outcome [1] is reported as “inactive; no positive results”.

Molecule `Nc1c(Cl)cc(Cl)cc1Cl` has a Potency [1] of 1.32 mmol/kg/day.

Molecule `CCCCCC(N)=O` has a Potency [1] of 16.9 mmol/kg/day.

For `C=CCc1ccc(O)c(OC)c1`, the outcome [1] was “inactive; no positive results”.

For `NC(=S)Nc1ccccc1`, the outcome [1] was “inactive; no positive results”.

Work on `CC(C)N(C(=O)SC/C(Cl)=C/Cl)C(C)C` yielded a Potency (TD50_Mouse_Note: TD50 is harmonic mean of more than one positive test, TargetSites_Mouse_Female: no positive results) of 0.0988 mmol/kg/day.

For `CC(=O)N(O)c1ccc2c(c1)Cc1ccccc1-2`, the Potency (TargetSites_Mouse_Female: esophagus, kidney, liver, stomach, urinary bladder) was 0.026 mmol/kg/day.

`CN(C)c1ccc(C(=O)c2ccc(N(C)C)cc2)cc1` was tested, and the Potency [4] was 0.313 mmol/kg/day.

In the case of `Nc1ccc2nc3ccccn3c2n1`, the Potency (TD50_Mouse_Note: TD50 is harmonic mean of more than one positive test, TargetSites_Mouse_Female: liver, vascular system) is reported as 0.0869 mmol/kg/day.

`CCN(CC)C(=S)SSC(=S)N(CC)CC` was tested, and the outcome [1] was “inactive; no positive results”.

In the case of `ClCOCC(COCCl)OCCl`, the Potency (TD50_Mouse_Note: positive test results only by intraperitoneal or intravenous injection, TargetSites_Mouse_Female: peritoneal cavity) is reported as 0.0145 mmol/kg/day.

For `CC[C@H]1OC(=O)C[C@@H](O)[C@H](C)[C@@H](O[C@@H]2O[C@H](C)[C@@H](O[C@H]3C[C@@](C)(O)[C@@H](O)[C@H](C)O3)[C@H](N(C)C)[C@H]2O)[C@@H](CC=O)C[C@@H](C)C(=O)/C=C/C(C)=C/C1CO[C@@H]1O[C@H](C)[C@@H](O)[C@@H](OC)[C@H]1OC` (stereo not given in full), the outcome [1] was “inactive; no positive results”.

`BrCCBr` was tested, and the Potency (TD50_Mouse_Note: TD50 is harmonic mean of more than one positive test, greater than ten-fold variation among TD50 values for positive res, TargetSites_Mouse_Female: esophagus, lung, mammary gland, nasal cavity, stomach, subcutaneous tissue, vascular system) was 0.0397 mmol/kg/day.

For `CN1[C@@H]2CC(OC(=O)[C@@H](CO)c3ccccc3)C[C@H]1[C@@H]1O[C@@H]12` (stereo not given in full), the outcome [1] was “inactive; no positive results”.

For `Oc1cccc2cccnc12.Oc1cccc2cccnc12.[Cu]`, the outcome [1] was “inactive; no positive results”.

In the case of `C1CO1`, the Potency (TD50_Mouse_Note: TD50 is harmonic mean of more than one positive test, TargetSites_Mouse_Female: harderian gland, hematopoietic system, lung, mammary gland, uterus) is reported as 1.45 mmol/kg/day.

`CCCCCCCCS(=O)C(C)Cc1ccc2c(c1)OCO2` (stereo not given) was tested, and the Potency [1] was 0.192 mmol/kg/day.

In the case of `CSCCC(N)C(=O)O` (stereo not given), the outcome is reported as “inactive; no positive results”.

`Nc1ccc(N)c2c1C(=O)c1c(N)ccc(N)c1C2=O` was tested, and the outcome [1] was “inactive; no positive results”.

For `Cc1ccc(N)cc1`, the Potency [4] was 0.581 mmol/kg/day.

`O=[N+]([O-])c1cc(N(CCO)CCO)ccc1NCCO` was tested, and the outcome [1] was “inactive; no positive results”.

For `CC(C)C=O`, the outcome [1] was “inactive; no positive results”.

`N[C@@H](CCC(=O)NNc1ccc(CO)cc1)C(=O)O` was tested, and the outcome [1] was “inactive; no positive results”.

`O=C(O)c1cccnc1` was tested, and the outcome [1] was “inactive; no positive results”.

For `C/C=C/C=C/C(=O)O`, the outcome [1] was “inactive; no positive results”.

In the case of `CN(C)CCOC(c1ccccc1)c1ccccc1`, the outcome [1] is reported as “inactive; no positive results”.

In the case of `OB(O)O`, the outcome [1] is reported as “inactive; no positive results”.

In the case of `CCCCC1C(=O)N(c2ccccc2)N(c2ccccc2)C1=O`, the Potency [1] is reported as 1.14 mmol/kg/day.

In the case of `O=c1c(O)c(-c2ccc(O)c(O)c2)oc2cc(O)cc(O)c12`, the outcome [1] is reported as “inactive; no positive results”.

For `O=[N+]([O-])c1ccc(Cl)cc1`, the Potency (TD50_Mouse_Note: TD50 is harmonic mean of more than one positive test, TargetSites_Mouse_Female: vascular system) was 3 mmol/kg/day.

With `O=[N+]([O-])c1ccc(NCCO)c(OCCO)c1` the outcome [1] was “inactive; no positive results”.

With `O=C(O)O` the outcome was “inactive; no positive results”.

In the case of `Nc1ccc(N=Nc2ccc(-c3ccc(N=Nc4c(S(=O)(=O)O)cc5cc(S(=O)(=O)O)c(N=Nc6ccccc6)c(O)c5c4N)cc3)cc2)c(N)c1`, the Potency [3] is reported as 0.0916 mmol/kg/day.

With `OCCO` the outcome [1] was “inactive; no positive results”.

`Cc1cnc2ccc3c(nc(N)n3C)c2n1` gave a Potency (TD50_Mouse_Note: TD50 is harmonic mean of more than one positive test, TargetSites_Mouse_Female: liver, lung) of 0.114 mmol/kg/day.

Work on `Clc1ccc(C(c2ccc(Cl)cc2)C(Cl)(Cl)Cl)cc1` yielded a Potency (TD50_Mouse_Note: TD50 is harmonic mean of more than one positive test, greater than ten-fold variation among TD50 values for positive res, TargetSites_Mouse_Female: hematopoietic system, liver, lung) of 0.0361 mmol/kg/day.

In the case of `CN(C)c1ccc(C(=C2C=CC(=[N+](C)C)C=C2)c2ccc(N(C)C)cc2)cc1`, the Potency (TD50_Mouse_Note: TD50 is harmonic mean of more than one positive test, TargetSites_Mouse_Female: harderian gland, hematopoietic system, liver) is reported as 0.222 mmol/kg/day.

`CS(=O)(=O)OCCCNCCCOS(C)(=O)=O` was tested, and the outcome [1] was “inactive; no positive results”.

`CCCCOCCO` showed a Potency [2] of 14.5 mmol/kg/day.

For `ClC=C(Cl)Cl`, the Potency [4] was 2.61 mmol/kg/day and the Potency (TD50_Mouse_Note: TD50 is harmonic mean of more than one positive test, greater than ten-fold variation among TD50 values for positive res, TargetSites_Mouse_Female: liver, lung) was 12 mmol/kg/day.

In the case of `COc1ccc([N+](=O)[O-])cc1N`, the Potency [5] is reported as 22.1 mmol/kg/day.

For `C=CC=O`, the outcome [1] was “inactive; no positive results”.

With `COP(=O)(OC)O/C(=C\Cl)c1cc(Cl)c(Cl)cc1Cl` the Potency (TargetSites_Mouse_Female: no positive results - CPDB evaluation based on NCI Technical Report) was 0.623 mmol/kg/day.

For `Clc1cc2c(c(Cl)c1Cl)Oc1c(cc(Cl)c(Cl)c1Cl)O2`, the Potency [4] was 3.66e-06 mmol/kg/day.
